36 compounds from patent US8815882B2, “Pyrazole aminopyrimidine derivatives as LRRK2 modulators” (Genentech, Inc., priority 2010, dated 2014) can be followed below.

T1 sequence (Q5S007 whole entry G2019S): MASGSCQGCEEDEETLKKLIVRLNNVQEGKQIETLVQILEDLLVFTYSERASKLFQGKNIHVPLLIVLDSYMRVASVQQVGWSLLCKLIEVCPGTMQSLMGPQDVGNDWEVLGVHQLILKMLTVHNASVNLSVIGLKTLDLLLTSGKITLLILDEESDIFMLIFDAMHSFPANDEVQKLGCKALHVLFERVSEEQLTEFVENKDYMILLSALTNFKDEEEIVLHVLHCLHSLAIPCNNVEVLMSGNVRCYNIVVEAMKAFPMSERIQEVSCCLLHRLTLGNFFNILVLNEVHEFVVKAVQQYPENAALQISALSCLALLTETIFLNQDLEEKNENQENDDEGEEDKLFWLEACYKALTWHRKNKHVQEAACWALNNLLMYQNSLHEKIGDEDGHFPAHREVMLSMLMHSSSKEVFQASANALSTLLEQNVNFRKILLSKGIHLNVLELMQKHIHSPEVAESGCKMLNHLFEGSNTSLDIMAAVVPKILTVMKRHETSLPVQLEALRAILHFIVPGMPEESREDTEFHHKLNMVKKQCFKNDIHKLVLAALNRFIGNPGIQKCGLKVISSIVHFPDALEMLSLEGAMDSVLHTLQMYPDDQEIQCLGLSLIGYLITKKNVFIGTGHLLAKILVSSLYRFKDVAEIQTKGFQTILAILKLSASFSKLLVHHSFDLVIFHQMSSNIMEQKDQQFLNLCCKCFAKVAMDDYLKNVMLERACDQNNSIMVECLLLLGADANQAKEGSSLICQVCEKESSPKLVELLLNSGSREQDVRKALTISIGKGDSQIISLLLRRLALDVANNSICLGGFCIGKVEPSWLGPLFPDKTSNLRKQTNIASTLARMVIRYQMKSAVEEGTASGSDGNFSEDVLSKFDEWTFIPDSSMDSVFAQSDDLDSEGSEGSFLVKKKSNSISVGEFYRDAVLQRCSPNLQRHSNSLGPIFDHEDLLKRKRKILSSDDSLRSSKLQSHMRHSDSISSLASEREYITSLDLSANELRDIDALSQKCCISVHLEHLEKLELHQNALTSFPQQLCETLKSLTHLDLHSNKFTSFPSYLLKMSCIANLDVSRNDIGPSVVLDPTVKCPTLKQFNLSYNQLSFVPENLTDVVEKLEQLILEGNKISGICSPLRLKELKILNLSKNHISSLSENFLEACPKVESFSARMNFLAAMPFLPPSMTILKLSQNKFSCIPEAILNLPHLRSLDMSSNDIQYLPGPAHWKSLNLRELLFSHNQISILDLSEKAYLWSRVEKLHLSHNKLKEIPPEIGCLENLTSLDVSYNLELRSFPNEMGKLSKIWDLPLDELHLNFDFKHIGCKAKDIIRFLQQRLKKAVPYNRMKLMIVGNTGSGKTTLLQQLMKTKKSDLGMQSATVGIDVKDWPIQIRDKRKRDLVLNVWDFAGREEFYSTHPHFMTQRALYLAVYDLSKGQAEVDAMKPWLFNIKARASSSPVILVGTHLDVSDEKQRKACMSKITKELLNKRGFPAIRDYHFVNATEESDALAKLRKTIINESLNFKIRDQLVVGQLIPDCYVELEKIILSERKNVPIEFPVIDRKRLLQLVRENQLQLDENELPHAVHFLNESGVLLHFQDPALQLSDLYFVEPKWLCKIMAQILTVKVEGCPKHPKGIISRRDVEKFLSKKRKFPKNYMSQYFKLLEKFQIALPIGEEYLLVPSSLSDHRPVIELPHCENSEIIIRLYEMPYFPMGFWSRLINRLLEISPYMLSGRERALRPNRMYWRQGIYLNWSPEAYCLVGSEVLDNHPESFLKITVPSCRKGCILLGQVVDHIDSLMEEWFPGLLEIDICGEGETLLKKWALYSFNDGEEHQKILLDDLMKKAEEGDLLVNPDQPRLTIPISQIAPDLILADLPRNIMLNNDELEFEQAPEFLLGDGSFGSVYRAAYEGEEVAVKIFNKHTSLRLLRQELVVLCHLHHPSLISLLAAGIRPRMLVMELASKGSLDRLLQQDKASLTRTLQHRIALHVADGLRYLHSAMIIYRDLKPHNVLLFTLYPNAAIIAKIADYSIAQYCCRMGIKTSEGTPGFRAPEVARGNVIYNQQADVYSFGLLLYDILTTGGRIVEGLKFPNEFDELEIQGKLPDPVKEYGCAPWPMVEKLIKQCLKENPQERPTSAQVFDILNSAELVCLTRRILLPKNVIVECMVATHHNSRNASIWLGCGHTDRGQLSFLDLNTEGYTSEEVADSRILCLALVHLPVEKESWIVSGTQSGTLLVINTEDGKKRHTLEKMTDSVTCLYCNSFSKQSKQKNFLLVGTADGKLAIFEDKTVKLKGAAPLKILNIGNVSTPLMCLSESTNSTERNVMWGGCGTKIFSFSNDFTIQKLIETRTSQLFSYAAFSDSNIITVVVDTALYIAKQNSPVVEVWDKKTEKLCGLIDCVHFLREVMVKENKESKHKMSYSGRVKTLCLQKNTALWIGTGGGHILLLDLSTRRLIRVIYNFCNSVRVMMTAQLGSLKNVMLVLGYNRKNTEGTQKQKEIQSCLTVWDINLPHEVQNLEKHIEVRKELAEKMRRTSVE

One assay addresses T1, LRRK2 (Homo sapiens, UniProt Q5S007, G2019S).
T1 construct: purchased Invitrogen PV4882 (lot 567054A)
The assay can be described thus: In Vitro LRRK2 Assay (LabChip 3000, fluorescently-labeled peptide substrate, ATP). The class given is biochemical. Particulars: Table 9; LRRK2 Ki (micromolar); read-out: LRRK2 Ki (KI). Put shortly:
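LRRK2, fluorescent peptide substrate (diluted to 4 μM before mixing), ATP and compound were incubated 2 h in the dark, then stopped. Phosphorylated and unphosphorylated peptide were separated by capillary electrophoresis and quantified by fluorescence. Ki was fitted with a tight-binding equation including enzyme concentration, S and Km; IC50 or percent inhibition were also reported.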
Consider `CCn1ncc(Nc2ncc(C#N)c(NC)n2)c1C` [Example 351, 2-(1-ethyl-5-methyl-1H-pyrazol-4-ylamino)-4-(methylamino) pyrimidine-5-carbonitrile], for which the inhibition constant (Ki) is 9.7 nM.
Consider `CNc1nc(Nc2cnn(-c3cc(F)cc(F)c3)c2C)ncc1C#N` [Example 390, 2-[1-(3,5-Difluoro-phenyl)-5-methyl-1H-pyrazol-4-ylamino]-4-methylamino-pyrimidine-5-carbonitrile], for which the Ki was found to be 241 nM.
The same measure, in the same setting: then `CNc1nc(Nc2cnn(C3CCN(CC(F)(F)F)CC3)c2C)ncc1C#N` [Example 356, 2-(5-methyl-1-(1-(2,2,2-trifluoroethyl)piperidin-4-yl)-1H-pyrazol-4-ylamino)-4-(methylamino) pyrimidine-5-carbonitrile], with 22.5 nM; and `CNc1nc(Nc2cn(C3CCC(F)(F)CC3)nc2C)ncc1C#N` [Example 392, 2-[1-(4,4-Difluoro-cyclohexyl)-3-methyl-1H-pyrazol-4-ylamino]-4-methylamino-pyrimidine-5-carbonitrile], with 266 nM.

The same assay, now with this note: Table 10; LRRK2 Ki (micromolar); read-out: LRRK2 Ki (KI).
Regarding `CNC(=O)C(C)(C)n1ncc(Nc2ncc(C(F)(F)F)c(NC3CC3)n2)c1C` [Example 450, 2-[4-(4-Cyclopropylamino-5-trifluoromethyl-pyrimidin-2-ylamino)-5-methyl-pyrazol-1-yl]-N-methyl-isobutyramide], the inhibition constant (Ki) stood at 7.1 nM.
On the same count and under the same terms, then `CNc1nc(Nc2cnn([C@@H](C)C#N)c2C)ncc1C(F)(F)F` [Example 415, (S)-2-(5-methyl-4-(4-(methylamino)-5-(trifluoromethyl)pyrimidin-2-ylamino)-1H-pyrazol-1-yl)propanenitrile], with 9.5 nM.
As for `CNc1nc(Nc2cnn(C(C)(C)C(=O)NC(C)(C)C)c2C)ncc1C(F)(F)F` [Example 447, N-tert-Butyl-2-[5-methyl-4-(4-methylamino-5-trifluoromethyl-pyrimidin-2-ylamino)-pyrazol-1-yl]-isobutyramide], the Ki was 67 nM.
The same measure, in the same setting: then `CNC(=O)C(C)(C)n1cc(Nc2ncc(C(F)(F)F)c(NC)n2)c(C)n1` [Example 432, N,2-dimethyl-2-(3-methyl-4-(4-(methylamino)-5-(trifluoromethyl)pyrimidin-2-ylamino)-1H-pyrazol-1-yl)propanamide], with 18.4 nM; and `CCNC(=O)C(C)(C)n1ncc(Nc2ncc(C(F)(F)F)c(NC)n2)c1Cl` [Example 425, 2-(5-chloro-4-(4-(methylamino)-5-(trifluoromethyl)pyrimidin-2-ylamino)-1H-pyrazol-1-yl)-N-ethyl-2-methyl propanamide], with 35.5 nM.
Still for that read-out and setting: then `CCNC(=O)C1(n2ncc(Nc3ncc(C(F)(F)F)c(NC)n3)c2C)CCC1` [Example 442, 1-[5-Methyl-4-(4-methylamino-5-trifluoromethyl-pyrimidin-2-ylamino)-pyrazol-1-yl]-cyclobutane-carboxylic acid ethylamide], with 15.6 nM.

The same assay, now with this note: read-out: LRRK2 Ki (KI), Table 7.
As for `CNc1nc(Nc2cc(C(C)C)nn2C)ncc1Cl` [Example 42, 5-Chloro-N^2-(5-isopropyl-2-methyl-2H-pyrazol-3-yl)-N^4-methyl-pyrimidine-2,4-diamine], the Ki amounted to 16 nM.
On the same count and under the same terms, then `COc1nc(Nc2cn(C3COC3)nc2C)ncc1Cl` [Example 18, 5-Chloro-4-methoxy-N-(3-methyl-1-(oxetan-3-yl)-1H-pyrazol-4-yl)pyrimidin-2-amine], with 22 nM.
Still for that read-out and setting: next, `COc1nc(Nc2cn(-c3ccccc3)nc2C)ncc1C(F)(F)F` [Example 77, (4-Methoxy-5-trifluoromethyl-pyrimidin-2-yl)-(3-methyl-1-phenyl-1H-pyrazol-4-yl)-amine]: 1.6 nM; `CNc1nc(Nc2ccnn2C)ncc1F` [Example 35, 5-Fluoro-N^4-methyl-N^2-(2-methyl-2H-pyrazol-3-yl)-pyrimidine-2,4-diamine]: 267 nM.
With `COc1nc(Nc2cnn(C)c2C)ncc1Cl` [Example 12, 5-Chloro-N-(1,5-dimethyl-1H-pyrazol-4-yl)-4-methoxy-pyrimidin-2-amine], the Ki is 9.1 nM.
Same read-out and setting: next, `COc1nc(Nc2cnn(-c3ccc(S(C)(=O)=O)cc3)c2C)ncc1Cl` [Example 60, 5-chloro-4-methoxy-N-(5-methyl-1-(4-(methylsulfonyl)phenyl)-1H-pyrazol-4-yl)pyrimidin-2-amine]: 15 nM; `COc1nc(Nc2cn(CC(C)(C)O)nc2C)ncc1Cl` [Example 23]: 27 nM.
On the same count and under the same terms, next, `COc1nc(Nc2cn(-c3ccc(S(C)(=O)=O)cc3)nc2C)ncc1Cl` [Example 75, (5-Chloro-4-methoxy-pyrimidin-2-yl)-[1-(4-methanesulfonyl-phenyl)-3-methyl-1H-pyrazol-4-yl]-amine]: 2.2 nM; `COc1nc(Nc2cn(C3CCOCC3)nc2C)ncc1Cl` [Example 65, 5-chloro-4-methoxy-N-(3-methyl-1-(tetrahydro-2H-pyran-4-yl)-1H-pyrazol-4-yl)pyrimidin-2-amine]: 2.9 nM.

The same assay, now with this note: read-out: LRRK2 Ki (KI), Table 8.
Turning to `CCCn1ncc(Nc2ncc(Br)c(NC)n2)c1C` [Example 259, 5-Bromo-N4-methyl-N2-(5-methyl-1-propyl-1H-pyrazol-4-yl)-pyrimidine-2,4-diamine], the Ki was determined as 5.7 nM.
On the same count and under the same terms, then `CNc1nc(Nc2cnn(CC3(C)COC3)c2C)ncc1C(F)(F)F` [Example 179, N4-methyl-N2-(5-methyl-1-((3-methyloxetan-3-yl)methyl)-1H-pyrazol-4-yl)-5-(trifluoromethyl) pyrimidine-2,4-diamine], with 9 nM.
Still for that read-out and setting: next, `CNc1nc(Nc2cn(C3CCS(=O)(=O)CC3)nc2C)ncc1C(F)(F)F` [Example 273, N2-[1-(1,1-Dioxo-hexahydro-1$1%6&- thiopyran-4-yl)-3-methyl-1H-pyrazol-4-yl]-N4-mcthyl-5-trifluoromethyl-pyrimidine-2,4-diamine]: 37 nM; `Cc1nc(Nc2cn(-c3ccc(S(C)(=O)=O)cc3)nc2C)ncc1Cl` [Example 173, 5-chloro-4-methyl-N-(3-methyl-1-(4-(methylsulfonyl)phenyl)-1H-pyrazol-4-yl)pyrimidin-2-amine]: 484 nM.
The same measure, in the same setting: then `CNc1nc(Nc2cnn(C(C)(C)COC)c2C)ncc1C(F)(F)F` [Example 203, N2-(1-(1-methoxy-2-methylpropan-2-yl)-5-methyl-1H-pyrazol-4-yl)-N4-methyl-5-(trifluoromethyl) pyrimidine-2,4-diamine], with 42 nM; and `CNc1nc(Nc2cn(Cc3cccnc3)nc2C)ncc1C(F)(F)F` [Example 289, N4-Methyl-N2-(3-methyl-1-pyridin-3-ylmethyl-1H-pyrazol-4-yl)-5-trifluoromethyl-pyrimidine-2,4-diamine], with 25 nM; and `CNc1nc(Nc2cn(CC(C)(C)O)nc2C2CC2)ncc1C(F)(F)F` [Example 235, 1-(3-cyclopropyl-4-(4-(methylamino)-5-(trifluoromethyl)pyrimidin-2-ylamino)-1H-pyrazol-1-yl)-2-methylpropan-2-ol], with 5.1 nM.
For `CCNc1nc(Nc2cnn(S(=O)(=O)CC)c2C)ncc1C(F)(F)F` [Example 244, N4-ethyl-N2-(1-(ethylsulfonyl)-5-methyl-1H-pyrazol-4-yl)-5-(trifluoromethyl) pyrimidine-2,4-diamine], the Ki stood at 4.7 nM.
The same measure, in the same setting: then `CNc1nc(Nc2cn(C(C)(C)COC)nc2C)ncc1C(F)(F)F` [Example 190, N2-(1-(1-methoxy-2-methylpropan-2-yl)-3-methyl-1H-pyrazol-4-yl)-N4-methyl-5-(trifluoromethyl) pyrimidine-2,4-diamine], with 6.9 nM; and `CCNc1nc(Nc2cnn(C3CCN(C(=O)C(C)C)CC3)c2C)ncc1C(F)(F)F` [Example 181, l-(4-(4-(4-(ethylamino)-5-(trifluoromethyl)pyrimidin-2-ylamino)-5-methyl-1H-pyrazol-1-yl)piperidin-1-yl)-2-methylpropan-1-one], with 0.82 nM; and `CCNc1nc(Nc2cnn(CC)c2C)ncc1Br` [Example 107, 5-bromo-N4-ethyl-N2-(1-ethyl-5-methyl-1H-pyrazol-4-yl)pyrimidine-2,4-diamine], with 0.43 nM.
On the same count and under the same terms, then `CNc1nc(Nc2cnn(C3CCN(CCOC)CC3)c2C)ncc1C(F)(F)F` [Example 239, N2-(1-(1-(2-methoxyethyl)piperidin-4-yl)-5-methyl-1H-pyrazol-4-yl)-N4-methyl-5-(trifluoromethyl) pyrimidine-2,4-diamine], with 6 nM; and `CCNc1nc(Nc2cnn(C3CCN(C(=O)C(C)C)CC3)c2C)ncc1C(F)(F)F` [Example 267, 1-{4-[4-(4-Ethylamino-5-trifluoromethyl-pyrimidin-2-ylamino)-5-methyl-pyrazol-1-yl]-piperidin-1-yl}-2-methyl-propan-1-one], with 0.8 nM.
On the same count and under the same terms, then `CCNc1nc(Nc2cn(C3CCC(=O)N(C)C3)nc2C)ncc1C(F)(F)F` (stereo not drawn) [Example 152, 5-(4-(4-(ethylamino)-5-(trifluoromethyl)pyrimidin-2-ylamino)-3-methyl-1H-pyrazol-1-yl)-1-methylpiperidin-2-one], with 7.3 nM; and `CNc1nc(Nc2cn(CC(F)(F)F)nc2C)ncc1C(F)(F)F` [Example 254, N4-Methyl-N2-[3-methyl-1-(2,2,2-trifluoro-ethyl)-1H-pyrazol-4-yl]-5-trifluoromethyl-pyrimidine-2,4-diamine], with 7.7 nM.
In the case of `CCn1cc(Nc2ncc(Br)c(NC)n2)c(C)n1` [Example 253, 5-Bromo-N2-(1-ethyl-3-methyl-1H-pyrazol-4-yl)-N4-methyl-pyrimidine-2,4-diamine], the Ki was 2.2 nM.
As for `CNc1nc(Nc2cnn(C3COC3)c2Cl)ncc1C(F)(F)F` [Example 168, N2-(5-chloro-1-(oxetan-3-yl)-1H-pyrazol-4-yl)-N4-methyl-5-(trifluoromethyl) pyrimidine-2,4-diamine], the Ki came to 9.5 nM.

Broadly, the Ki is the dissociation constant of the complex between target and ligand, obtained from inhibition or displacement.
